Results published in patent US20110124745A1, “Switchable Anionic Surfactants and Methods of Making and Using Same” (priority 2009, published 2011).
Several values for one entry are separate records, joined by “and”; a condition that tells them apart may be missing. Equal entries are not always repeated.

What was measured:
Format in all cases: physicochemical
[1] = Switching efficiency by 1H NMR, method A ([(CH3)4N]I internal standard); conditions: relative to (CH3)4NI set to 100
Description: (§1) In both methods, to quantify the concentration of surfactant in solution, its ^1H NMR integration was compared to one of two internal standards of known concentration. In addition to the difference in which internal standard was used, the two methods can also be distinguished from each other on the basis of the timing of the addition of the internal standard. In method A, the standard remains in the solution during the process of switching. In method B, the switching is executed first and the DMF solution of known strength and quantity is added in to the solution.
(§2) In both methods, the surfactant was turned OFF with CO2 by positioning the needle that supplied the CO2 to the surfactant solution above the solution in such a way that the slow flow of CO2 was allowed to interact with the surfactant solution at the surface. The switching from ON to OFF required 5 min or less. Increasing the surface area, for example, by slightly tilting the vial, expedited the switching from ON to OFF. To turn the surfactant ON, the solution was stirred at 70° C. for 40 min as described above. After each ON cycle, 0.5 mL of D2O was added to the solution to compensate for the loss in the volume caused by evaporation.
The surfactant solution was prepared by combining 0.046 g of octyl 4-hydroxy-3-nitrobenzoate (1N) and 0.136 g of Na2CO3 in 16.0 mL of D2O. To this solution, 11.5 mg of [(CH3)4N]I was added. The resultant solution was homogenized by sonication for 2 min. […] Stirring bars were introduced in vials 3 to 11. […] The surfactant solutions were turned OFF and ON by the procedure described in Example 3.
As the standard, [(CH3)4N]I was added early into the surfactant solution. All the solutions were filtered and the ^1H NMR spectra of all these solutions were recorded. In all cases, the integration of [(CH3)4N]I was set to 100 and compared with the integration of aromatic proton at δ ˜7.3. […] Thus the concentration of the surfactant in these solutions was substantially zero. […] Thus the experimental results established that the surfactant turns ON and OFF with substantially 100% efficiency.

[2] = Switching efficiency by 1H NMR, method B (DMF internal standard); conditions: relative to DMF standard set to 100
Description: as §1, §2
The surfactant solution was prepared by combining 0.046 g of octyl 4-hydroxy-3-nitrobenzoate and 0.136 g of Na2CO3 in 16.0 mL of D2O. The resultant solution was homogenized by sonication for 2 min. 1.00 mL of this solution was transferred using a Hamilton syringe into thirteen different vials (1, 2, 2*, 3, 4, 5, 6, 7, 8, 9, 10, 11 and 12). Stirring bars were introduced in vials 2* through 12. […] The surfactant in vial 2 was turned OFF by the procedure described above. The solution in vial 2* was turned OFF with CO2 and was then left stirring uncapped at room temperature for 18 h. All the vials (excluding 2*) were tightly capped and left at room temperature for 18 h to confirm the stability of the systems in both the ON/OFF forms upon standing.
The standard solution of DMF was prepared by mixing 0.005 mL of DMF in 8.0 mL of D2O. […] The ^1H NMR spectra of all solutions were recorded. […]

[3] = pH studies of ON and OFF surfactant solutions
Experimental: For pH studies described below, a pH meter (Orion 4 Star Conductivity Benchtop, available from ThermoElectron Corporation, Mass., USA) was used. The pH meter was calibrated before the measurements as per the instructions provided with the pH meter. All solutions were prepared using deionized water. All pH measurements were done at 25° C.
Surfactant solution was prepared by dissolving n-octyl 4-hydroxy-3-nitrobenzoate (0.443 g, 1.502 mmol) and anhydrous Na2CO3 (1.27 g, 12.02 mmol) in 150 mL of deionized water. The resultant solution was homogenized by sonication for 2 min. Aliquots (10.0 mL) of this solution were transferred into eleven different vials numbered as 1, 2, 3, 4, 5, 6, 7, 8, 9, 10, and 11 by Hamilton syringe. The level of the solution in each vial was marked using a marker. Stirring bars were introduced in vials 3 to 11. […] To turn the surfactant OFF, CO2 was slowly bubbled through a solution for 10 min (formation of the OFF form was observed by formation of light yellow solid precipitate). To turn the surfactant ON the solution was heated and stirred while immersed in an oil bath preset at 70° C., for 40 min. The solution in vial 2 was turned OFF. The solution in vial 3 was first turned OFF and then ON. The solution in vial 4 was first turned OFF then ON and finally OFF. After completion of the indicated cycle, each vial was first allowed to cool down to room temperature (if the cycle marked its completion with the surfactant in ON form), the solution was then diluted with deionized water. To be consistent with the previous experiments, all the vials were tightly capped (using […]™) and allowed to stand for 18 h at room temperature (see FIG. 2).

[4] = Solubility observations (aqueous solution, DMSO)
Description: The following study confirmed that compounds (1A) and (1N) reversibly convert from the neutral form (1N) to the anionic form (1A) and back to the neutral form over and over again with substantially no loss of product. The conversion was verified visually since the neutral form was not soluble in aqueous solution and appeared as a white precipitate in colourless liquid while the anionic form was fully soluble in aqueous solution and appeared as a clear yellow liquid (see FIG. 2). In addition to visual examination, ^1H NMR studies that are described below confirmed the presence of the hydroxyl proton in the spectra of the neutral form.
Since n-octyl 4-hydroxy-3-nitrobenzoate (1N) and the […] salt of (1A) are soluble in DMSO and have some characteristic signals in the ^1H NMR spectrum, […] was used as a solvent to monitor the non-aqueous switchability by NMR spectroscopy.

[5] = D2O with Na2CO3, vial 1, control, never switched (ON)

Row | Compound | Proton integration at ~7.3 δ [1, 5] | Proton integration at ~7.3 δ ([1]; D2O with Na2CO3, vials 3, 5, 7, 9, 11: ON/OFF cycles of Table 1 ending ON (70° C., 40 min)) | Proton integration at ~7.3 δ [2, 5] | Proton integration at ~7.3 δ ([2]; vial 2*: turned OFF with CO2, then stirred uncapped at room temperature) | pH when turned OFF ([3]; 0.01 M compound (1) + 0.08 M Na2CO3, after CO2 bubbling, 25° C.) | pH when turned ON ([3]; 0.01 M compound (1) + 0.08 M Na2CO3, after heating at 70° C. for 40 min, measured at 25° C.) | pH of Original stock solution (ON) ([3]; 0.01 M compound (1) neutral form + 0.08 M Na2CO3 in water, 25° C.) | average pH value of the solution in ON form ([3]; ON form after cycling) | pH of the solution ([3]; vial 1, control, never switched (ON), 1.502 mmol (1N) + 12.02 mmol Na2CO3 in 150 mL water) | pH of the solution ([3]; vials 3, 5, 7, 9, 11: cycles of Table 1 ending ON) | solubility in aqueous solution (visual) [4] | Proton integration at ~7.3 δ ([1]; filtered D2O solution, vials 2, 4, 6, 8, 10: cycles of Table 1 ending OFF (CO2)) | Proton integration at ~7.3 δ ([2]; filtered solution, vials 2, 4, 6, 8, 10, 12: cycles of Table 1 ending OFF (CO2)) | average pH value of the solutions in the OFF form ([3]; OFF form) | pH of the solution ([3]; vials 2, 4, 6, 8, 10: cycles of Table 1 ending OFF) | solubility in DMSO [4]
1 | CCCCCCCCOC(=O)c1ccc(O)c([N+](=O)[O-])c1 [compound (1A), 2-nitro-4-(octyloxycarbonyl)phenolate] | 24 | 23 and 24 and 22 and 20 | 46 | 45 | 8.02 | 8.78 | 10.87 | 9.31 | 10.85 | 9.26 and 9.24 and 9.22 and 9.44 and 9.38 | fully soluble | – | – | – | – | –
2 | CCCCCCCCOC(=O)c1ccc(O)c([N+](=O)[O-])c1 [compound (1N), octyl 4-hydroxy-3-nitrobenzoate] | – | – | – | – | – | – | – | – | – | – | – | 0 | 0 | 7.73 | 7.88 and 7.70 and 7.89 and 7.35 and 7.83 | soluble
